Assay [1] deals with T1, human α10 nAChRs (Homo sapiens, UniProt Q9GZZ6). Description: Agonist activation of α10 nAChRs, concentration-response in oocytes. Set-up: Emax: dose or concentration left out as unconfirmed.
Description: For the assessment of ligand activity, the oocyte membranes were clamped at a holding potential of −70 mV and continuously perfused with saline (control solution). […] Ligands were applied in this manner for concentrations up to 1 µM.
Assay [2] deals with human α9 nAChRs (Homo sapiens, UniProt Q9UGM1).
Assay [3] addresses T1, human α10 nAChRs. As to conditions: ACh 1 mM.
Description: For the assessment of ligand activity, the oocyte membranes were clamped at a holding potential of −70 mV and continuously perfused with saline (control solution). […] Ligands were applied in this manner for concentrations up to 1 µM. […] For experiments examining the desensitization kinetics of α10-containing nAChRs, sibling oocytes were injected with 25 ng of cRNA for α10 subunits or cRNA for α9 and α10 subunits (25 ng each). Actinomycin-D (1 µM) was also used in some experiments to prevent RNA transcription and inhibit the expression of endogenous chloride channels. The oocytes were incubated in actinomycin-D for 36 h prior to assessment with TEVC electrophysiology.
Assay [4] deals with X. laevis oocytes injected with water.
The target in assay [5] is T1, human α10 nAChRs. Description: Decay of ACh-evoked currents of ligand-incubated oocytes during saline perfusion (one-phase exponential plateau). As to conditions: oocytes treated 3 days with 20 μM ligand; ACh 1 mM; calculated plateau, 95% CI in parentheses.
Assay [6] addresses T1, human α10 nAChRs. In words: cell-based. Format: cell-based. The arrangement: expressed in transfected cells. To be noted: for ACh response in presence of ligand, of control values: oocytes incubated with BRU (20 μM).
The target of assay [7] is T1, human α10 nAChRs. Type of assay: cell-based. The arrangement: expressed in transfected cells.
The target in assay [8] is T2, human α9α10 nAChRs (Homo sapiens, UniProt Q9GZZ6+Q9UGM1).
T2 construct: expressed in transfected cells; host or cells: Xenopus laevis oocytes co-injected with α9 and α10 cRNAs (1:1)
T2 sequence (Q9UGM1 26-479 limits assumed): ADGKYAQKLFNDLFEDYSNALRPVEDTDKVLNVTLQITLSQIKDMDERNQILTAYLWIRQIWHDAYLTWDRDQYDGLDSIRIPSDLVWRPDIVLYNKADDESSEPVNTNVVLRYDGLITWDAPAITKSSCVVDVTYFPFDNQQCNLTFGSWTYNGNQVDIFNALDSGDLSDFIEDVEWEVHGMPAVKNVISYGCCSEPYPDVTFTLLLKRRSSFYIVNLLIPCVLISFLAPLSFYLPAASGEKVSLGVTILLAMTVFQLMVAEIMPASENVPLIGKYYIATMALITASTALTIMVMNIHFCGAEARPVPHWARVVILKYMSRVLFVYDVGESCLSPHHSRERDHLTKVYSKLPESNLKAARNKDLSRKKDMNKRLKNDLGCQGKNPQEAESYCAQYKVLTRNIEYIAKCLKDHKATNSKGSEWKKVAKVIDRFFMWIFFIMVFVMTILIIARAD
T2 sequence (Q9GZZ6 25-450): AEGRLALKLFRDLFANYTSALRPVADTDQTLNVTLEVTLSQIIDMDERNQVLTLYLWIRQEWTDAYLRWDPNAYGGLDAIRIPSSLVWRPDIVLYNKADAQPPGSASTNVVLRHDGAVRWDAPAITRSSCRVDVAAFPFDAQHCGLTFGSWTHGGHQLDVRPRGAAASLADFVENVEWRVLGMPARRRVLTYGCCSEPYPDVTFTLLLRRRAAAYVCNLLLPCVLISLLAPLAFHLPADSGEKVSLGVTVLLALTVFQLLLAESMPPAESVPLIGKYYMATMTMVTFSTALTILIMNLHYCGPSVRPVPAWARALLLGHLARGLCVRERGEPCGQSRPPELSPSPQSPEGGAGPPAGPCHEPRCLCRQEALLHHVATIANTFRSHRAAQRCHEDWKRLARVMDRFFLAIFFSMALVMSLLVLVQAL
Description: cell-based.

Assay [9] concerns the target T2, human α9α10 nAChRs. In words: Desensitization to 15 s pulse of ACh in calcium or barium saline. Type of assay: cell-based. As to conditions: for peak current amplitude in response to ACh: 15 s pulse of EC50 ACh, oocytes incubated in saline only. The text has this: (§1) Similar to the results presented in Figure 2, peak ACh-evoked currents from α10 nAChRs were reduced in the presence of barium compared to calcium (Figures 10A,B). […] By contrast with α10 nAChRs, α9α10 currents were much smaller in the presence of barium compared to calcium (Figures 10C,D). Furthermore, α9α10 nAChRs desensitized more slowly than α10 nAChRs.

Assay [10] has as its target T1, human α10 nAChRs. The assay is described as above. Format: cell-based. As to conditions: for peak current amplitude in response to ACh: 15 s pulse of EC50 ACh, oocytes incubated in STR (20 μM). Set-up: expressed in transfected cells.
Excerpt: as §1

[11] abbreviates: read-out: inhibition of ACh-evoked responses.
Where [12] appears, read: oocytes treated 3 days with 20 μM ligand, ACh 1 mM.

“And” between values parts separate entries of the source, which are not always exact repeats. Equal values may be shown once. “Also recorded” adds a separate entry of the source. Where a name gives a salt, the structure may show the parent alone. Read-outs that look alike come from different tables or passages of the source. Starred links: 1 amine or outer side, 2 acyl side, 3 side chain; linkers in the order of their positions; H or OH if unused. Positions of bridges follow the written chain, without caps; N, C: chain ends. Non-standard residues stand in square brackets, D forms with d. Residues, ends and D or L forms follow the SMILES beside them. Chains are numbered I, II in the order given. Actinocin(9to1) = Cc1c2oc3c(C)ccc(C(=O)[*:1])c3nc-2c(C(=O)[*:2])c(N)c1=O; NMeV = CN[C@H](C(=O)O)C(C)C; Sar = CNCC(=O)O

T1 sequence (Q9GZZ6 25-450): as above
human α9 nAChRs, sequence (Q9UGM1 26-479 limits assumed): as the sequence (Q9UGM1 26-479 limits assumed) above

For the molecule `C[N+](C)(C)CCO` [choline], the Emax in [1] (read-out: maximal response, of the calculated maximal response to ACh) was 4 ± 2%. Also, in [2], the “ACh-evoked current amplitude before exposure to STR” value is reported as −78 ± 44 nA.

The IC50 is the concentration needed to halve the response being measured. The inhibition is how much of the control response was suppressed. As to `O=C1C[C@@H]2OCC=C3CN4CC[C@]56c7ccccc7N1[C@H]5[C@H]2[C@H]3C[C@H]46` [STR, strychnine], the ACh-evoked response amplitude in [3] (oocytes treated 36 h with STR (20 μM), calcium replaced with equimolar barium) is recorded as −301 ± 225 nA. For the same molecule, the ACh-evoked response amplitude in assay [3] (oocytes treated 36 h with STR (20 μM), saline with calcium ([…])) is listed as −373 ± 273 nA. Also, in assay [4], the ACh-evoked current amplitude is listed as −1.6 ± 0.7 nA. Moreover, the “plateau to which ACh-evoked currents decay, of initial current amplitudes” value in [5] is 74% and 74 (72–76) %. In addition, in assay [6], the “ACh-evoked currents after acute application, of control values” is 52 ± 13%; 20.2 µM corresponded to half-maximal inhibition (IC50); the “enhancement of ACh-evoked current amplitudes” value was found to be 518 ± 411%; the “response to ACh after perfusion with ligand” value is given as −294 ± 149 nA. Further, the inhibition at 20 µM in [6] (setting [11]) is ~50%. Further, the “range of ACh-evoked current amplitudes” value in assay [7] (setting [12]) was −76 to −2,378 nA. The “ACh-evoked current amplitude after exposure to STR” value in [2] (subset of choline-incubated oocytes then incubated in STR (20 μM) for 24 h, ACh 100 μM) is −2.1 ± 1.2 nA. The “ACh-evoked currents after acute application, of control values” in assay [8] was 1.0 ± 0.5%. In addition, the inhibition at 20 µM in [8] (setting [11]) is ~99%.

Take `CN1CCC[C@H]1c1cccnc1` [nicotine, (-)-nicotine hydrogen tartrate]: the “ACh responses in the presence of ligand” value in [6] was 99 ± 8%. In addition, in assay [7], the ACh-evoked current amplitude was −6.0 ± 6.2 nA. Also, in [1] (concentrations up to 1 mM, oocytes incubated in STR (20 μM)), the agonist-evoked currents result was “failed to evoke current responses; also recorded: failed to induce detectable currents”.

In the case of `COc1cc2c(cc1OC)[C@@]13CCN4CC5=CCO[C@H]6CC(=O)N2[C@H]1[C@H]6[C@H]5C[C@H]43` [BRU, dimethoxystrychnine sulfate hydrate], the “plateau to which ACh-evoked currents decay, of initial current amplitudes” value in assay [5] was 15% and 15 (13–17) %. In addition, the “ACh response in presence of ligand, of control values” in assay [6] (ligand 100 nM perfused) is 87 ± 16%; in assay [6] (ligand 1 μM (2nd of series 100 nM through 300 μM)), 246 ± 74%; in assay [6] (ligand 10 μM (3rd of series 100 nM through 300 μM)), 371 ± 101%; in assay [6] (ligand 100 μM (4th of series 100 nM through 300 μM)) it was 260 ± 102%; in assay [6] (ligand 300 μM perfused), 168 ± 73%. For the same molecule, the “range of ACh-evoked current amplitudes” value in assay [7] (setting [12]) is reported as −50 to −888 nA. Besides, the ACh-evoked current amplitude in assay [7] (oocytes treated 3 days with 20 μM ligand, ACh 1 mM, ± SD) is reported as −302 ± 225 nA.

Turning to `Cc1c2oc3c(C)ccc(C(=O)N[C@@H]4C(=O)N[C@H](C(C)C)C(=O)N5CCC[C@H]5C(=O)N(C)CC(=O)N(C)[C@@H](C(C)C)C(=O)O[C@@H]4C)c3nc-2c(C(=O)N[C@@H]2C(=O)N[C@H](C(C)C)C(=O)N3CCC[C@H]3C(=O)N(C)CC(=O)N(C)[C@@H](C(C)C)C(=O)O[C@@H]2C)c(N)c1=O` [Actino-D, actinomycin-D] (I: T[dV]P[Sar][NMeV] / II: T[dV]P[Sar][NMeV]; ester I:1-I:C, II:1-II:C; linker I:N-II:N via Actinocin(9to1)), the ACh-evoked response amplitude in assay [3] (sibling oocytes incubated with 1 µM actinomycin-D (and STR 20 μM), barium) is listed as −164 ± 96 nA; in assay [3] (sibling oocytes incubated with 1 µM actinomycin-D (and STR 20 μM), calcium ([…])), −186 ± 96 nA.

As to `CC(=O)OCC[N+](C)(C)C` [ACh, acetylcholine], the “peak current amplitude in response to ACh” value in assay [9] (barium) is −31 ± 40 nA; in assay [9] (calcium), −484 ± 270 nA; in assay [10] (barium), −1,430 ± 1,424 nA; in [10] (calcium), −1,818 ± 1,329 nA. The “current at the end of the 15 s pulse of ACh” value is −23 ± 30 nA in assay [9] (barium), −154 ± 74 nA in [9] (calcium), −459 ± 375 nA in assay [10] (barium) and −553 ± 396 nA in [10] (calcium). For the same molecule, the “current at the end of the 15 s pulse of ACh, of peak amplitude” value is reported as 73 ± 8% in assay [9] (barium), 33 ± 4% in assay [9] (calcium), 35 ± 11% in assay [10] (barium) and 31 ± 6% in assay [10] (calcium). Besides, the ACh-evoked current amplitude in [7] (oocytes treated 3 days with 5 mM ligand, ACh 1 mM, ± SD) is on record as −17 ± 11 nA. For the same molecule, the “Hill Slope of activation curve” value in assay [1] (oocytes incubated in STR (20 μM), 95% CI in parentheses) is on record as 1.1 (0.9–1.3).
